{
  "source": "patent US20170190705A1",
  "about": "“Compositions and Methods for Inhibiting BMP” (THE BRIGHAM AND WOMAN'S HOSPITAL, INC., priority 2014, published 2017)",
  "assay_type_in_all_cases": "biochemical",
  "key": {"[1]": {"biological_target": "T1, PRAK (Homo sapiens, UniProt Q8IW41)", "T1 sequence (Q8IW41 1-473)": "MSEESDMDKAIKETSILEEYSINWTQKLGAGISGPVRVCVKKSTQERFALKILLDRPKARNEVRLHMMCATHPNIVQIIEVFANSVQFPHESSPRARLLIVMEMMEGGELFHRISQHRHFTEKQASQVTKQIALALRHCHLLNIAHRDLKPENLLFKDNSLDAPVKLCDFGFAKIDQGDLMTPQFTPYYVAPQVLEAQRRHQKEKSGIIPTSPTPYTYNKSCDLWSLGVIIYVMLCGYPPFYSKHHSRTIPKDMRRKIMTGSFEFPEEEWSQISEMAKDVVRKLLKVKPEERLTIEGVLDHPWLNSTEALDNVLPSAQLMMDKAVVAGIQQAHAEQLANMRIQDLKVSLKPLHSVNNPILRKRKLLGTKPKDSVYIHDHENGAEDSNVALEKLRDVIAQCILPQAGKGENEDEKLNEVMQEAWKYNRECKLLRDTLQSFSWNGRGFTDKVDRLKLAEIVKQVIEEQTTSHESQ", "assay": "Kinome profiling PRAK", "conditions": "read-out: Inhibitory activity PRAK; for inhibition at 0.1 µM: 100 nM", "protocol": "(§1) . The kinome-wide selectivity was determined following the methods previously reported by Mohedas et al., ACS Chem Biol 2013, 8, 1291-1302 and Sanvitale et al., PLoS One 2013, 8, e62721."}, "[2]": {"biological_target": "CAMK2α (Homo sapiens, UniProt Q9UQM7)", "sequence (Q9UQM7 whole entry)": "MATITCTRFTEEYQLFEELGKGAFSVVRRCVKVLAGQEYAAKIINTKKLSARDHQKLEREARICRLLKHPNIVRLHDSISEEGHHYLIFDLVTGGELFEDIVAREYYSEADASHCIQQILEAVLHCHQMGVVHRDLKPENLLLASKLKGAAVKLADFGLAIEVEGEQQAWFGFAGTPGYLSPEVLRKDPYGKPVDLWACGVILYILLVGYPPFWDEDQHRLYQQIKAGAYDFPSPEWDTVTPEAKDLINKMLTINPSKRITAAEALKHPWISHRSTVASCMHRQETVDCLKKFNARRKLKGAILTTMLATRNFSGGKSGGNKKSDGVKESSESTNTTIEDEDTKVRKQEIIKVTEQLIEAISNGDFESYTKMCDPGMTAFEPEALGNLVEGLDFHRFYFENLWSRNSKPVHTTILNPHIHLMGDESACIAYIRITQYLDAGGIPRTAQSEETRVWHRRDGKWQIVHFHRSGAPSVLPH", "assay": "Kinome profiling CAMK2α", "conditions": "read-out: Inhibitory activity CAMK2α; for inhibition at 0.1 µM: 100 nM", "protocol": "as §1"}, "[3]": {"biological_target": "JNK2 (Homo sapiens, UniProt P45984)", "sequence (P45984 whole entry)": "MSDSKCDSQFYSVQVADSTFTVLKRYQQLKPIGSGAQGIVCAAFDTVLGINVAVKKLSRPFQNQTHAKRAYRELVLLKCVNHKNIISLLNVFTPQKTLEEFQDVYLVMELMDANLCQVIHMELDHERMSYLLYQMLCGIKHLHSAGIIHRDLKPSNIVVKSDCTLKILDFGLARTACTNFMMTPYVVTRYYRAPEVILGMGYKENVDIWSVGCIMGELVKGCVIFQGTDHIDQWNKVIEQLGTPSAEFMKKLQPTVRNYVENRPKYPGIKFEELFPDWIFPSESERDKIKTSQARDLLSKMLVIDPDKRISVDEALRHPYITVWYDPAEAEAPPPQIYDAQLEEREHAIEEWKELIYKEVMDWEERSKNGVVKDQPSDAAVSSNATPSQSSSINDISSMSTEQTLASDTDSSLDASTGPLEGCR", "assay": "Kinome profiling JNK2", "conditions": "read-out: Inhibitory activity JNK2; for inhibition at 0.1 µM: 100 nM", "protocol": "as §1"}, "[4]": {"biological_target": "DYRK1B (Homo sapiens, UniProt Q9Y463)", "sequence (Q9Y463 whole entry)": "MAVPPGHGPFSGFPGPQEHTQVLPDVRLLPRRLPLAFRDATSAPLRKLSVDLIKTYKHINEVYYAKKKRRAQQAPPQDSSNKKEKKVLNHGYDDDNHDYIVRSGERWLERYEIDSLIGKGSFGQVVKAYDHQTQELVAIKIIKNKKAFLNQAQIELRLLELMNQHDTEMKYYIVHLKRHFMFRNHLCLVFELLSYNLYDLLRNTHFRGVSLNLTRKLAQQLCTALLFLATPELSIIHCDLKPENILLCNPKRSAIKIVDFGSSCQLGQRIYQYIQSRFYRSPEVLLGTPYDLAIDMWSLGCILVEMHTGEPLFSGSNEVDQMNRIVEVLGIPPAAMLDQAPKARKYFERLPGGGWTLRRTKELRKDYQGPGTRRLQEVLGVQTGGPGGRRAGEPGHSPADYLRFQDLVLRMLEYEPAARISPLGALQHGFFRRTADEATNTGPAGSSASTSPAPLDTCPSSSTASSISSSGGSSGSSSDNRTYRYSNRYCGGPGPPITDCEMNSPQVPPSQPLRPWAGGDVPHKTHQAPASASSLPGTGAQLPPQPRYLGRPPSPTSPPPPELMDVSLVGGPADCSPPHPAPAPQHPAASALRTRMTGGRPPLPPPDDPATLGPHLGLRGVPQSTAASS", "assay": "Kinome profiling DYRK1B", "conditions": "read-out: Inhibitory activity DYRK1B; for inhibition at 0.1 µM: 100 nM", "protocol": "as §1"}, "[5]": {"biological_target": "T2, EPHB2 (Homo sapiens, UniProt P29323)", "T2 sequence (P29323 19-1055)": "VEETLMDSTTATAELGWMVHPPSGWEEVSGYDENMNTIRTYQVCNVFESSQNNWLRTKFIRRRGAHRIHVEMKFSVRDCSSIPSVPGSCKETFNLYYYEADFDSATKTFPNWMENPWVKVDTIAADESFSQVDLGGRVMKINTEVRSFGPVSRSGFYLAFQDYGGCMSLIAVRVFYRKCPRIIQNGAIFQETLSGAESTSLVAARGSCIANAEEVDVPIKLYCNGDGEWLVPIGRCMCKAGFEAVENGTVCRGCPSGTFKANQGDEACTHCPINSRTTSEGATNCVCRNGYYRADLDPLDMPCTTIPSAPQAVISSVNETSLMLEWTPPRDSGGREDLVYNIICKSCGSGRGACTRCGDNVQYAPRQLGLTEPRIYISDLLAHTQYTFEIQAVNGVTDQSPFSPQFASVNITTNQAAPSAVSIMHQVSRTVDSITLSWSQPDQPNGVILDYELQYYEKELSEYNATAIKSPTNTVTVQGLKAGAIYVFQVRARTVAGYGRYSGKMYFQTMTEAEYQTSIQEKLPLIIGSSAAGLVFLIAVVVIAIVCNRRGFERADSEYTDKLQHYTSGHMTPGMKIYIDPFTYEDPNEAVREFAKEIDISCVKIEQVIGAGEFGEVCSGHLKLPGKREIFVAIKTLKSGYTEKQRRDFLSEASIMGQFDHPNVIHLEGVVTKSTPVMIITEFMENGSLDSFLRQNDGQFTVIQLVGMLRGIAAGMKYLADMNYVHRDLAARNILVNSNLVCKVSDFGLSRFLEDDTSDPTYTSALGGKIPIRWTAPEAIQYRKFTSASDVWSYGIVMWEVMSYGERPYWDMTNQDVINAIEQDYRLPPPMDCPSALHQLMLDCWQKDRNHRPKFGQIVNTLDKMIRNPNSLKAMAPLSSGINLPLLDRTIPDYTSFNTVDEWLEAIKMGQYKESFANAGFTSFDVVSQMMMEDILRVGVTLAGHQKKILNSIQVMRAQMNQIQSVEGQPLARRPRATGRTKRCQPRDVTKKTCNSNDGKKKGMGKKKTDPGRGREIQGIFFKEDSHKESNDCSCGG", "assay": "Kinome profiling EPHB2", "conditions": "read-out: Inhibitory activity EPHB2; for inhibition at 0.1 µM: 100 nM", "protocol": "as §1"}, "[6]": {"biological_target": "ROCK2 (Homo sapiens, UniProt O75116)", "sequence (O75116 whole entry)": "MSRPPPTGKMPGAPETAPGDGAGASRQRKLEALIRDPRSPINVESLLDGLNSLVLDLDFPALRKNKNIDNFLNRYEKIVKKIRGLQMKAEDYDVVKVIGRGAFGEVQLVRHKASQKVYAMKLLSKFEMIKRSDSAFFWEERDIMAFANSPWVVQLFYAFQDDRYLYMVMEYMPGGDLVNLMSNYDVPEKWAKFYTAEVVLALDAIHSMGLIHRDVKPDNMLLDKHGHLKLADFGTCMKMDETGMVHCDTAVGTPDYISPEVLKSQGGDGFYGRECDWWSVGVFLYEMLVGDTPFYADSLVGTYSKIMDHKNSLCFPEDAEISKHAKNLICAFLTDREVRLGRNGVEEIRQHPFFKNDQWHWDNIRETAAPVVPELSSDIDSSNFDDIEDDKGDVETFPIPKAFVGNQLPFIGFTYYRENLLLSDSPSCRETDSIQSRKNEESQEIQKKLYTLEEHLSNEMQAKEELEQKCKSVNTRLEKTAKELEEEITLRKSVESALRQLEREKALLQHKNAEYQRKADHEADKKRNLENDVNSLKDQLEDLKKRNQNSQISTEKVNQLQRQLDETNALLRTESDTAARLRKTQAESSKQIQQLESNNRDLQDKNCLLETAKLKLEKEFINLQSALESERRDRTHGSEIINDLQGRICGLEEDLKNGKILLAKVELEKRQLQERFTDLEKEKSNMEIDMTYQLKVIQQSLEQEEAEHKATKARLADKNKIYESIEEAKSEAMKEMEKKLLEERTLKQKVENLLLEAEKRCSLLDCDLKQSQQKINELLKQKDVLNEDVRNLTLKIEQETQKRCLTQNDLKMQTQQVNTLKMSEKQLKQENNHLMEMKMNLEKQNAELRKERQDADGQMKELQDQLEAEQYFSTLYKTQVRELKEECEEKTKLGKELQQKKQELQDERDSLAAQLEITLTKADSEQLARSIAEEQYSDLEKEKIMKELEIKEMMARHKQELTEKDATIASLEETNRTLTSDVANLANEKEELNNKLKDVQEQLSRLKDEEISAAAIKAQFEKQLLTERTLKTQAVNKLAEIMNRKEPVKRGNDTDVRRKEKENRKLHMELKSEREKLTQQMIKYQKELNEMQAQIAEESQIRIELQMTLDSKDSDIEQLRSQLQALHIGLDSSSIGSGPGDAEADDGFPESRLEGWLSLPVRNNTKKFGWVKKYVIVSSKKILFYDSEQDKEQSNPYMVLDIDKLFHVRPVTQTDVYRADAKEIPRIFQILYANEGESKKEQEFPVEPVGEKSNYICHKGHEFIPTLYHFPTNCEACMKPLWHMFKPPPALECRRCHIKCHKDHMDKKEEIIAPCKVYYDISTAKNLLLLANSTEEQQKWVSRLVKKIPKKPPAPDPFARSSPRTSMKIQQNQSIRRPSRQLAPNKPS", "assay": "Kinome profiling ROCK2", "conditions": "read-out: Inhibitory activity ROCK2; for inhibition at 0.1 µM: 100 nM", "protocol": "as §1"}, "[7]": {"biological_target": "T3, TTK (Homo sapiens, UniProt P33981)", "T3 sequence (P33981 1-857)": "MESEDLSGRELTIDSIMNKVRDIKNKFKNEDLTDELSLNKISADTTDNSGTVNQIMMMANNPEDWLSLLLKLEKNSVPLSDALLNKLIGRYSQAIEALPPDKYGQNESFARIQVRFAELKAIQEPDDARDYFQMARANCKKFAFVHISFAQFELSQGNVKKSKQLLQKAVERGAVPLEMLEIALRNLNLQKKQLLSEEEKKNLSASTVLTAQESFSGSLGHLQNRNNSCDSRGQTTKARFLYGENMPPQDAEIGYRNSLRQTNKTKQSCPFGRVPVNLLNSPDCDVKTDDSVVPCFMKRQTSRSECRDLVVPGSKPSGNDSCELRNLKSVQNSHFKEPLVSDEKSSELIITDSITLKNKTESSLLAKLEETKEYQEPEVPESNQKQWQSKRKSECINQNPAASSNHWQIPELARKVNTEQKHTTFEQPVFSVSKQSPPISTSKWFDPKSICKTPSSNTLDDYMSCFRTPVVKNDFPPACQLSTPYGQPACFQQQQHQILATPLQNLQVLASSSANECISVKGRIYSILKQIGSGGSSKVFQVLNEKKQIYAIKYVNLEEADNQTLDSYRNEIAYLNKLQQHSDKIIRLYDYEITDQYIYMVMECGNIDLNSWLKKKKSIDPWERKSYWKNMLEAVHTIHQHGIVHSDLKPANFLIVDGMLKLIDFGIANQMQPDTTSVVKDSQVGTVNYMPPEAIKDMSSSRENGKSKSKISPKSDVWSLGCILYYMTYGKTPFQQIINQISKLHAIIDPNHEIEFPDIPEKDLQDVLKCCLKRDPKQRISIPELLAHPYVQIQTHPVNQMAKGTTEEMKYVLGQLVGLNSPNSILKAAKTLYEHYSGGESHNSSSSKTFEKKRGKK", "assay": "Kinome profiling TTK", "conditions": "read-out: Inhibitory activity TTK; for inhibition at 0.1 µM: 100 nM", "protocol": "as §1"}},
  "data": [
    {"compound": "COc1cc(-c2cc(-c3ccc(N4CCNCC4)cc3)cnc2C)cc(OC)c1OC", "note": "[Compound 10, 1-(4-(6-methyl-5-(3,4,5-trimethoxyphenyl)pyridin-3-yl)phenyl)piperazine]", "values": [
      {"measurement": "inhibition at 0.1 µM", "setting": "[1]", "value": 0, "unit": "%"},
      {"measurement": "inhibition at 1 µM", "setting": "[1]", "value": 3, "unit": "%"},
      {"measurement": "inhibition at 0.1 µM", "setting": "[2]", "value": -1, "unit": "%"},
      {"measurement": "inhibition at 1 µM", "setting": "[2]", "value": -1, "unit": "%"},
      {"measurement": "inhibition at 0.1 µM", "setting": "[3]", "value": 0, "unit": "%"},
      {"measurement": "inhibition at 1 µM", "setting": "[3]", "value": 2, "unit": "%"},
      {"measurement": "inhibition at 0.1 µM", "setting": "[4]", "value": 2, "unit": "%"},
      {"measurement": "inhibition at 1 µM", "setting": "[4]", "value": 5, "unit": "%"},
      {"measurement": "inhibition at 0.1 µM", "setting": "[5]", "value": 5, "unit": "%"},
      {"measurement": "inhibition at 1 µM", "setting": "[5]", "value": 15, "unit": "%"},
      {"measurement": "inhibition at 0.1 µM", "setting": "[6]", "value": 4, "unit": "%"},
      {"measurement": "inhibition at 1 µM", "setting": "[6]", "value": 3, "unit": "%"},
      {"measurement": "inhibition at 0.1 µM", "setting": "[7]", "value": 3, "unit": "%"},
      {"measurement": "inhibition at 1 µM", "setting": "[7]", "value": 4, "unit": "%"}
    ]},
    {"compound": "COc1cc(-c2cc(-c3ccc(N4CCNCC4)cc3)cnc2N)cc(OC)c1OC", "note": "[Compound 15, 5-(4-(piperazin-1-yl)phenyl)-3-(3,4,5-trimethoxyphenyl)pyridin-2-amine]", "values": [
      {"measurement": "inhibition at 0.1 µM", "setting": "[1]", "value": 1, "unit": "%"},
      {"measurement": "inhibition at 1 µM", "setting": "[1]", "value": 1, "unit": "%"},
      {"measurement": "inhibition at 0.1 µM", "setting": "[2]", "value": 1, "unit": "%"},
      {"measurement": "inhibition at 1 µM", "setting": "[2]", "value": -1, "unit": "%"},
      {"measurement": "inhibition at 0.1 µM", "setting": "[3]", "value": 2, "unit": "%"},
      {"measurement": "inhibition at 1 µM", "setting": "[3]", "value": 3, "unit": "%"},
      {"measurement": "inhibition at 0.1 µM", "setting": "[4]", "value": -1, "unit": "%"},
      {"measurement": "inhibition at 1 µM", "setting": "[4]", "value": 4, "unit": "%"},
      {"measurement": "inhibition at 0.1 µM", "setting": "[5]", "value": 22, "unit": "%"},
      {"measurement": "inhibition at 1 µM", "setting": "[5]", "value": 70, "unit": "%"},
      {"measurement": "inhibition at 0.1 µM", "setting": "[6]", "value": -1, "unit": "%"},
      {"measurement": "inhibition at 1 µM", "setting": "[6]", "value": 2, "unit": "%"},
      {"measurement": "inhibition at 0.1 µM", "setting": "[7]", "value": 13, "unit": "%"},
      {"measurement": "inhibition at 1 µM", "setting": "[7]", "value": 18, "unit": "%"}
    ]}
  ]
}
